Measurements taken from PubChem BioAssay (NCI).
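Protocol summary: plate cells (96-well), add compound at 5 concentrations, incubate 48 h, interpolate endpoints linearly. The concentration for full growth arrest is given as TGI.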

Assays:
Test in all cases: NCI-60 cell line screen, 48 h
786-0 renal = system: 786-0 renal
A498 renal = system: A498 renal
A549 NSCLC = system: A549 NSCLC
ACHN renal = system: ACHN renal
BT-549 breast = system: BT-549 breast
CAKI-1 renal = system: CAKI-1 renal
DU-145 prostate = system: DU-145 prostate
EKVX NSCLC = system: EKVX NSCLC
HCC-2998 colon = system: HCC-2998 colon
HCT-116 colon = system: HCT-116 colon
HCT-15 colon = system: HCT-15 colon
HL-60(TB) leukemia = system: HL-60(TB) leukemia
HOP-62 NSCLC = system: HOP-62 NSCLC
HOP-92 NSCLC = system: HOP-92 NSCLC
HS 578T breast = system: HS 578T breast
HT29 colon = system: HT29 colon
IGROV1 ovarian = system: IGROV1 ovarian
K-562 leukemia = system: K-562 leukemia
KM12 colon = system: KM12 colon
LOX IMVI melanoma = system: LOX IMVI melanoma
M14 melanoma = system: M14 melanoma
MALME-3M melanoma = system: MALME-3M melanoma
MCF7 breast = system: MCF7 breast
MDA-MB-435 = system: MDA-MB-435
MDA-N = system: MDA-N
MOLT-4 leukemia = system: MOLT-4 leukemia
NCI-H226 lung = system: NCI-H226 lung
NCI-H23 lung = system: NCI-H23 lung
NCI-H460 lung = system: NCI-H460 lung
NCI-H522 lung = system: NCI-H522 lung
NCI/ADR-RES ovarian = system: NCI/ADR-RES ovarian
OVCAR-3 ovarian = system: OVCAR-3 ovarian
OVCAR-4 ovarian = system: OVCAR-4 ovarian
OVCAR-5 ovarian = system: OVCAR-5 ovarian
OVCAR-8 ovarian = system: OVCAR-8 ovarian
PC-3 prostate = system: PC-3 prostate
RPMI-8226 leukemia = system: RPMI-8226 leukemia
RXF 393 renal = system: RXF 393 renal
SF-268 CNS = system: SF-268 CNS
SF-295 CNS = system: SF-295 CNS
SK-MEL-2 melanoma = system: SK-MEL-2 melanoma
SK-MEL-28 melanoma = system: SK-MEL-28 melanoma
SK-MEL-5 melanoma = system: SK-MEL-5 melanoma
SK-OV-3 ovarian = system: SK-OV-3 ovarian
SN12C renal = system: SN12C renal
SNB-19 CNS = system: SNB-19 CNS
SR leukemia = system: SR leukemia
SW-620 colon = system: SW-620 colon
T-47D breast = system: T-47D breast
TK-10 renal = system: TK-10 renal
UACC-257 melanoma = system: UACC-257 melanoma
UACC-62 melanoma = system: UACC-62 melanoma
UO-31 renal = system: UO-31 renal
COLO 205 colon = system: COLO 205 colon
SF-539 CNS = system: SF-539 CNS

Structure (SMILES): CC(=O)Oc1ccc2[nH]c3c(C)c4cccc-4ccc3c2c1
- TGI (786-0 renal): 3.36 µM
- TGI (A498 renal): 5.53 µM
- TGI (A549 NSCLC): 4.7 µM
- TGI (ACHN renal): 3.33 µM
- TGI (BT-549 breast): 5.37 µM
- TGI (CAKI-1 renal): 3.41 µM
- TGI (DU-145 prostate): 12.7 µM
- TGI (EKVX NSCLC): 4.21 µM
- TGI (HCC-2998 colon): 5.05 µM
- TGI (HCT-116 colon): 4.31 µM
- TGI (HCT-15 colon): 5 µM
- TGI (HL-60(TB) leukemia): 6.87 µM
- TGI (HOP-62 NSCLC): 4.8 µM
- TGI (HOP-92 NSCLC): 4.17 µM
- TGI (HS 578T breast): 7.74 µM
- TGI (HT29 colon): 4.18 µM
- TGI (IGROV1 ovarian): 3.2 µM
- TGI (K-562 leukemia): 11.5 µM
- TGI (KM12 colon): 5.47 µM
- TGI (LOX IMVI melanoma): 4.4 µM
- TGI (M14 melanoma): 4.21 µM
- TGI (MALME-3M melanoma): 3.63 µM
- TGI (MCF7 breast): 10.7 µM
- TGI (MDA-MB-435): 3.81 µM
- TGI (MDA-N): 4.93 µM
- TGI (MOLT-4 leukemia): 9.82 µM
- TGI (NCI-H226 lung): 3.11 µM
- TGI (NCI-H23 lung): 3.96 µM
- TGI (NCI-H460 lung): 10.3 µM
- TGI (NCI-H522 lung): 3.86 µM
- TGI (NCI/ADR-RES ovarian): 5.33 µM
- TGI (OVCAR-3 ovarian): 3.64 µM
- TGI (OVCAR-4 ovarian): 3.5 µM
- TGI (OVCAR-5 ovarian): 4.14 µM
- TGI (OVCAR-8 ovarian): 4.63 µM
- TGI (PC-3 prostate): 3.37 µM
- TGI (RPMI-8226 leukemia): 11 µM
- TGI (RXF 393 renal): 3.78 µM
- TGI (SF-268 CNS): 4.19 µM
- TGI (SF-295 CNS): 4.32 µM
- TGI (SK-MEL-2 melanoma): 3.66 µM
- TGI (SK-MEL-28 melanoma): 4.47 µM
- TGI (SK-MEL-5 melanoma): 3.95 µM
- TGI (SK-OV-3 ovarian): 4.28 µM
- TGI (SN12C renal): 4.49 µM
- TGI (SNB-19 CNS): 3.69 µM
- TGI (SR leukemia): 34.6 µM
- TGI (SW-620 colon): 10.7 µM
- TGI (T-47D breast): 8.22 µM
- TGI (TK-10 renal): 3.57 µM
- TGI (UACC-257 melanoma): 4.07 µM
- TGI (UACC-62 melanoma): 3.42 µM
- TGI (UO-31 renal): 3.19 µM

Structure (SMILES): COc1cc(/C=C2/SC(c3ccccc3)N(c3cccc(NC(C)=O)c3)C2=O)cc(OC)c1OC (stereo not given)
- TGI (786-0 renal): > 100 µM
- TGI (A498 renal): > 100 µM
- TGI (A549 NSCLC): > 100 µM
- TGI (ACHN renal): > 100 µM
- TGI (BT-549 breast): > 100 µM
- TGI (CAKI-1 renal): > 100 µM
- TGI (COLO 205 colon): > 100 µM
- TGI (DU-145 prostate): > 100 µM
- TGI (EKVX NSCLC): > 100 µM
- TGI (HCC-2998 colon): > 100 µM
- TGI (HCT-116 colon): > 100 µM
- TGI (HCT-15 colon): > 100 µM
- TGI (HL-60(TB) leukemia): > 100 µM
- TGI (HOP-62 NSCLC): > 100 µM
- TGI (HOP-92 NSCLC): > 100 µM
- TGI (HS 578T breast): > 100 µM
- TGI (HT29 colon): > 100 µM
- TGI (K-562 leukemia): > 100 µM
- TGI (KM12 colon): > 100 µM
- TGI (LOX IMVI melanoma): > 100 µM
- TGI (M14 melanoma): > 100 µM
- TGI (MALME-3M melanoma): > 100 µM
- TGI (MCF7 breast): > 100 µM
- TGI (MDA-MB-435): > 100 µM
- TGI (MDA-N): > 100 µM
- TGI (MOLT-4 leukemia): > 100 µM
- TGI (NCI-H226 lung): > 100 µM
- TGI (NCI-H23 lung): > 100 µM
- TGI (NCI-H460 lung): > 100 µM
- TGI (NCI-H522 lung): 73.6 µM
- TGI (NCI/ADR-RES ovarian): > 100 µM
- TGI (OVCAR-3 ovarian): > 100 µM
- TGI (OVCAR-4 ovarian): > 100 µM
- TGI (OVCAR-5 ovarian): > 100 µM
- TGI (OVCAR-8 ovarian): > 100 µM
- TGI (RPMI-8226 leukemia): > 100 µM
- TGI (RXF 393 renal): > 100 µM
- TGI (SF-268 CNS): > 100 µM
- TGI (SF-295 CNS): > 100 µM
- TGI (SF-539 CNS): > 100 µM
- TGI (SK-MEL-28 melanoma): > 100 µM
- TGI (SK-MEL-5 melanoma): > 100 µM
- TGI (SK-OV-3 ovarian): > 100 µM
- TGI (SN12C renal): > 100 µM
- TGI (SNB-19 CNS): > 100 µM
- TGI (SR leukemia): > 100 µM
- TGI (SW-620 colon): > 100 µM
- TGI (T-47D breast): > 100 µM
- TGI (TK-10 renal): > 100 µM
- TGI (UACC-257 melanoma): > 100 µM
- TGI (UACC-62 melanoma): > 100 µM
- TGI (UO-31 renal): > 100 µM
